{"source": "patent US20190365784A1", "about": "“USE OF BRASSINOSTEROID ANALOGS FOR THE TREATMENT OF DERMAL DISORDERS BY SELECTIVELY MODULATING LIVER X RECEPTORS (LXR) AND DERMAL DISEASE TREATMENT BY BRASSINOSTEROID ANALOGS ACTING AS SELECTIVE LIVER X RECEPTOR (LXR) MODULATORS” (CONSEJO NACIONAL DE INVESTIGACIONES CIENTÍFICAS Y TÉCNICAS …, priority 2015, published 2019)", "key": {"LXR-alpha": {"test_system": "LXR-alpha", "assay": "LXR-alpha expression in HepG2 cells (real time PCR)", "format": "cell-based, human", "settings": "10 uM, 6 h", "quoted_text": "The cells were incubated for 6 h in the presence of either Compound I (10 uM), or Compound II (10 uM), or the commercial LXR agonist GW3965 (1 uM), or Vehicle [DMSO, 0.1% (v/v)]). To obtain RNA, at the end of the incubation the cells were collected by centrifugation at 1,000 rpm for 2 min, washed with phosphate buffered saline, and lysed in 300 ul TRIZOL (Invitrogen). RNA samples were suspended in ul of RNAse free water, and their concentration determined (NanoDrop spectrophotometer). The ratio of the absorbance at 260 and 280 nm was used to assess RNA purity of an RNA preparation, with a value of 1.8-2.0 indicating pure RNA. To obtain cDNA, 1 ug of total RNA was denatured by incubating for 5 min at 70° C., before the addition of a mixture containing 0.5 ug oligo-dT primers and 25 ng/ml of random primers (Invitrogen), 1.0 mM dNTPs (Invitrogen), and 200 U M-MLV reverse transcriptase (Promega); after this the mixture was retrotranscribed at 37° C. for 60 min, followed by an incubation at 95° C. for 5 min to inactivate the enzyme. For the real time PCR amplification (Stratagene Thermal Cycler), cDNA samples were diluted 1/5 to 1/10 depending on the target amplification product. Calibration curves were obtained by use of eight successive 1:2 sample dilutions. […]"}, "[1]": {"assay": "Plasma total cholesterol, HDL-cholesterol and triglyceride in C57BI mice after 5 days i.p. treatment", "format": "in vivo", "settings": "male C57BI mice; Compound I 10 mg/kg i.p. daily for 5 days", "procedure": "(§1) Administration of synthetic LXR agonists such as T0901317 induces a marked increment of liver lipogenesis that leads to hepatic steatosis and plasma hypertriglyceridemia.\n(§2) Male C57BI mice received daily for 5 days intraperitoneal injections containing either 10 mg Compound I/kg, or 5 mg T0901317/kg, or vehicle [90% (v/v) DMSO in apyrogenic sterile water]. On the sixth day of the assay, the animals were fasted for 4 h before decapitation. Blood plasma was obtained for the determination of total cholesterol, HDL-cholesterol and triglyceride contents. The livers were resected, and their weights and colors used as gross markers of increased liver triglyceride contents."}, "granuloma formation": {"test_system": "granuloma formation", "assay": "Granuloma formation in a mouse model of subchronic inflammation", "format": "in vivo", "settings": "mice; 10 mg/kg body weight; previously showed, data not shown"}, "[2]": {"assay": "Liver weight and gross morphology (hepatic steatosis) in C57BI mice after 5 days i.p. treatment", "format": "in vivo", "settings": "male C57BI mice; Compound I 10 mg/kg i.p. daily for 5 days", "procedure": "as §1, §2"}, "[3]": {"test_system": "imiquimod-induced skin lesions", "assay": "Imiquimod-induced psoriasis model in mice: clinical signs and dorsal skin histopathology", "format": "in vivo", "parameters": "key to Hyperkeratosis, protective effect / Epidermal serocellular crust, protective effect / Acanthosis, protective effect / Dermal inflammatory infiltrates, protective effect: the (+) sign represents the presence of a protective effect; a (−) sign represents the absence of protective effect", "settings": "for Acanthosis (0-4), group mean score of dorsal skin / Basliar papillae (0-4), group mean score of dorsal skin / Dermal inflammatory infiltrates (0-4), group mean score of dorsal skin / Dilated tortuous capillaries (0-4), group mean score of dorsal skin / Epidermal micro-abscesses (0-4), group mean score of dorsal skin / Epidermal serocellular rust (0-4), group mean score of dorsal skin / Hyperkeratosis (0-4), group mean score of dorsal skin / Mean Global Score, dorsal skin / Parakeratosis (0-4), group mean score of dorsal skin: psoriatic mice; for Acanthosis (0-4), group mean score of dorsal skin / Basliar papillae (0-4), group mean score of dorsal skin / Dermal inflammatory infiltrates (0-4), group mean score of dorsal skin / Dilated tortuous capillaries (0-4), group mean score of dorsal skin / Epidermal micro-abscesses (0-4), group mean score of dorsal skin / Epidermal serocellular rust (0-4), group mean score of dorsal skin / Hyperkeratosis (0-4), group mean score of dorsal skin / Mean Global Score, dorsal skin / Parakeratosis (0-4), group mean score of dorsal skin / severity of microscopic alterations of back skin (histopathology): QD 9 days", "from_the_text": "To test whether Compound I might ameliorate the signs of psoriasis, we topically administered Compound I to imiquimod-induced skin lesions in mice. The imiquimod mouse model of psoriasis-like skin inflammation is characterized by lesions that show augmented epidermal cell proliferation, abnormal keratinocyte differentiation, neutrophil accumulation in epidermal microabcesses, and neoangiogenesis.\nFor this study, thirty two 8-week old female Balbc/J mice were housed […] in positively ventilated polysulfonate cages with HEPA filtered air at a density of 4 mice per cage. The animal room was lighted entirely with artificial fluorescent lighting, with a controlled 12 h light/dark cycle (6 am to 6 pm light). The normal temperature and relative humidity ranges in the animal rooms were 22±4° C. and 50±15%, respectively. The animal rooms were set to have a minimum of 15 air exchanges per hour. Filtered tap water, acidified to a pH of 2.5 to 3.0, and standard rodent chow were provided ad libitum. After 1 week of acclimation mice were randomized into 4 groups (n=8/each) as shown below (Table 1).\n1. IMQ induction: On day 0 all grouped mice received a topical dose of 62.5 mg of IMQ cream (5%) on the shaved back for 6 consecutive days. (Day 0 to Day 5)\n3. Mice were scored for clinical parameters of disease based on degree of erythema, scaling and thickening independently on a scale of 0-4. 0=none; 1=slight; 2=moderate; 3=moderate to severe: 4=severe. These observations were recorded on day 0, 2, 4, 6, and 8. On the same days, back skin thickness was measured with calipers.\n5. Mice were sacrificed on day 10 by CO2 asphyxiation.\n6. A part of the back skin was harvested and fixed for histology. Slides were processed, stained with H&E for histology assessment.\nDorsal skin sections were evaluated histopathologically for evidence of key features of psoriasis, such as parakeratosis, hyperkeratosis (thickening of the stratum corneum), acanthosis (diffuse thickening of the stratum spinosum of the skin), epidermal serocellular crusts, epidermal microabscesses, basilar papillae, dermal inflammatory infiltrates and dilated tortuous capillaries (Table 2. Histopathological scoring system and definition used in the Imiquimod psoriasis model)."}, "[4]": {"settings": "0.1% (w/v) Compound I vs 0.1% (w/v) Clobetasol as printed"}, "[5]": {"settings": "topical 0.10%, summary of Table 3"}}, "note": "Marks after values point to notes of the source that are not given here."}
{"smiles": "CC[C@@H](C(C)C)[C@H](O)[C@@H](O)[C@@H](C)[C@H]1CC[C@H]2[C@@H]3CCC4=CC(=O)CC[C@]4(C)[C@H]3CC[C@]12C", "note": "[Compound I, (22S,23S)-22,23-dihydroxystigmast-4-en-3-one]", "values": [{"measurement": "induction of LXR-alpha expression compared with DMSO treated HepG2", "setting": "LXR-alpha", "result": 1.5, "unit": "times"}, {"measurement": "hypertriglyceridemia", "setting": "[1]", "result": "no signs"}, {"measurement": "granuloma formation", "setting": "granuloma formation", "result": "reduces granuloma formation"}, {"measurement": "liver (hepatic) steatosis", "setting": "[2]", "result": "no signs"}, {"measurement": "epidermal sero-cellular crust reduced relative to Clobetasol-treated mice", "setting": "[3]; [4]", "result": 50, "unit": "%"}, {"measurement": "hyperkeratosis reduced relative to Clobetasol-treated mice", "setting": "[3]; [4]", "result": 50, "unit": "%"}, {"measurement": "global response score of dorsal skin, lower vs. vehicle-treated animals", "setting": "[3]; Compound I 0.1% topical, 9 days", "result": "~26", "unit": "%"}, {"measurement": "back skin thickening (calipers)", "setting": "[3]; after 9 days topical, Compound I 0.05% and 0.1% (w/v), clobetasol 0.05% cream", "result": "None of the assayed Compound I's doses prevented back skin thickening"}, {"measurement": "erythema reduction relative to vehicle-treated mice", "setting": "[3]; day 8, both Compound I doses 0.05% and 0.1% (w/v), topical", "result": 50, "unit": "%"}, {"measurement": "skin erythema (clinical score 0-4, in words)", "setting": "[3]; day 8, topical QD 9 days, both Compound I doses 0.05% and 0.1% (w/v), clobetasol 0.05% cream", "result": "slight"}, {"measurement": "scaling (clinical score 0-4, in words)", "setting": "[3]; day 8, topical QD 9 days, both Compound I doses, clobetasol 0.05% cream", "result": "no improvement"}, {"measurement": "Acanthosis (0-4), group mean score of dorsal skin", "setting": "[3]; topical 0.05%", "result": 2.4}, {"measurement": "Basliar papillae (0-4), group mean score of dorsal skin", "setting": "[3]; topical 0.05%", "result": 0.0}, {"measurement": "Dermal inflammatory infiltrates (0-4), group mean score of dorsal skin", "setting": "[3]; topical 0.05%", "result": 2.0}, {"measurement": "Dilated tortuous capillaries (0-4), group mean score of dorsal skin", "setting": "[3]; topical 0.05%", "result": 0.0}, {"measurement": "Epidermal micro-abscesses (0-4), group mean score of dorsal skin", "setting": "[3]; topical 0.05%", "result": 0.0}, {"measurement": "Epidermal serocellular rust (0-4), group mean score of dorsal skin", "setting": "[3]; topical 0.05%", "result": 0.4}, {"measurement": "Hyperkeratosis (0-4), group mean score of dorsal skin", "setting": "[3]; topical 0.05%", "result": "1.3*"}, {"measurement": "Mean Global Score, dorsal skin", "setting": "[3]; topical 0.05%", "result": 6.4}, {"measurement": "Parakeratosis (0-4), group mean score of dorsal skin", "setting": "[3]; topical 0.05%", "result": 0.4}, {"measurement": "Acanthosis (0-4), group mean score of dorsal skin", "setting": "[3]; topical 0.10%", "result": 2.1}, {"measurement": "Basliar papillae (0-4), group mean score of dorsal skin", "setting": "[3]; topical 0.10%", "result": 0.0}, {"measurement": "Dermal inflammatory infiltrates (0-4), group mean score of dorsal skin", "setting": "[3]; topical 0.10%", "result": 1.5}, {"measurement": "Dilated tortuous capillaries (0-4), group mean score of dorsal skin", "setting": "[3]; topical 0.10%", "result": 0.0}, {"measurement": "Epidermal micro-abscesses (0-4), group mean score of dorsal skin", "setting": "[3]; topical 0.10%", "result": 0.0}, {"measurement": "Epidermal serocellular rust (0-4), group mean score of dorsal skin", "setting": "[3]; topical 0.10%", "result": "0.3†"}, {"measurement": "Hyperkeratosis (0-4), group mean score of dorsal skin", "setting": "[3]; topical 0.10%", "result": "0.9**"}, {"measurement": "Mean Global Score, dorsal skin", "setting": "[3]; topical 0.10%", "result": 4.9}, {"measurement": "Parakeratosis (0-4), group mean score of dorsal skin", "setting": "[3]; topical 0.10%", "result": 0.0}, {"measurement": "severity of microscopic alterations of back skin (histopathology)", "setting": "[3]; topical 0.05%", "result": "slightly lower severity"}, {"measurement": "severity of microscopic alterations of back skin (histopathology)", "setting": "[3]; topical 0.10% (w/v)", "result": "lower than in samples from vehicle-treated psoriatic controls and 0.05% (w/v) Compound I-treated mice"}, {"measurement": "Acanthosis, protective effect", "setting": "[3]; [5]", "result": "−"}, {"measurement": "Dermal inflammatory infiltrates, protective effect", "setting": "[3]; [5]", "result": "−"}, {"measurement": "Epidermal serocellular crust, protective effect", "setting": "[3]; [5]", "result": "+"}, {"measurement": "Hyperkeratosis, protective effect", "setting": "[3]; [5]", "result": "+"}]}
